# In patent US20240158446A1, “CYCLIC COMPOUND HAVING SELECTIVE INHIBITORY ACTION ON KRAS OVER HRAS AND NRAS” (CHUGAI SEIYAKU KABUSHIKI KAISHA, priority 2021, published 2024):
# Where a SMILES comes first, the peptide text is derived from it. Bridges are numbered along the chain shown (N, C = ends). [ ]: non-standard residue; d: D form. hPhe(3-Cl-4-CF3) = N[C@@H](CCc1ccc(C(F)(F)F)c(Cl)c1)C(=O)O; NPrPhe(4-CF3) = CCCN[C@@H](Cc1ccc(C(F)(F)F)cc1)C(=O)O; NMeGly(cPent) = CN[C@H](C(=O)O)C1CCCC1; Pro(4,4-F2) = O=C(O)[C@@H]1CC(F)(F)CN1; Hyp = O=C(O)[C@@H]1C[C@@H](O)CN1; NMeD = CN[C@@H](CC(=O)O)C(=O)O; NMeL = CN[C@@H](CC(C)C)C(=O)O; NMeA = CN[C@@H](C)C(=O)O; Ac5c = NC1(C(=O)O)CCCC1; Aze = O=C(O)[C@@H]1CCN1; Ac4c = NC1(C(=O)O)CCC1; NEtG = CCNCC(=O)O; Sar = CNCC(=O)O
# Assays:
# [1] = biological target: GDP-bound KRAS wild-type protein (Homo sapiens, UniProt P01116); experiment: Binding to KRAS by surface plasmon resonance (SPR), Single Cycle Kinetics; details: SPR Single Cycle Kinetics, GDP-bound KRAS wild-type protein, 1:1 binding model; read-out: KRAS KD
# [2] = biological target: GDP-bound NRAS wild-type protein (Homo sapiens, UniProt P01111); experiment: Binding to NRAS by surface plasmon resonance (SPR), Single Cycle Kinetics; details: SPR, GDP-bound NRAS wild-type protein vs GDP-bound KRAS wild-type protein
# [3] = biological target: GDP-bound HRAS wild-type protein (Homo sapiens, UniProt P01112); experiment: Binding to HRAS by surface plasmon resonance (SPR), Single Cycle Kinetics; details: SPR, GDP-bound HRAS wild-type protein vs GDP-bound KRAS wild-type protein
# Chain of GDP-bound HRAS wild-type protein (P01112 whole entry): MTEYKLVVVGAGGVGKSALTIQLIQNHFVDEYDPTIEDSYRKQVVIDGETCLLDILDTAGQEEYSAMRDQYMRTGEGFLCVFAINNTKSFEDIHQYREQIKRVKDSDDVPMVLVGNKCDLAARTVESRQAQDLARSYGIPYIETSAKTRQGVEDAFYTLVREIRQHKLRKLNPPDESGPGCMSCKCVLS
# Chain of GDP-bound NRAS wild-type protein (P01111 whole entry): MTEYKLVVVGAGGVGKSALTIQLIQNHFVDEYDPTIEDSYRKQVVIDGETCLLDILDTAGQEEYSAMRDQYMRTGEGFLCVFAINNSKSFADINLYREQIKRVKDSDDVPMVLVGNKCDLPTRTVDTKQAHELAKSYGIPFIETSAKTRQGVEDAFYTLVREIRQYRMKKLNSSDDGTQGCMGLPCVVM
# Chain of GDP-bound KRAS wild-type protein (P01116 whole entry): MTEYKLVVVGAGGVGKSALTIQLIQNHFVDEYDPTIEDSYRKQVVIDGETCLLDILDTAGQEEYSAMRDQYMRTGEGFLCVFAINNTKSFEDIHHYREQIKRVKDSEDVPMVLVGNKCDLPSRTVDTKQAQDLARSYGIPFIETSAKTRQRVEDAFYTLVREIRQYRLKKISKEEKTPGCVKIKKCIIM
SMILES,Kd [1] [nM],NRAS/KRAS (ratio of KD value with respect to NRAS to KD value with respect to KRAS) [2],HRAS/KRAS (ratio of KD value with respect to HRAS to KD value with respect to KRAS) [3]
CCCN1C(=O)CN(C)C(=O)CN(CC)C(=O)[C@H]([C@@H](C)CC)NC(=O)[C@H](CC(C)C)N(C)C(=O)C[C@@H](C(=O)N(C)C)N(C)C(=O)[C@H](C2CCCC2)N(C)C(=O)C2(CCCC2)NC(=O)[C@@H]2C[C@@H](OCC)CN2C(=O)[C@H](CCc2ccc(C(F)(F)F)c(Cl)c2)NC(=O)CN(C)C(=O)[C@@H]1Cc1ccc(C(F)(F)F)cc1 [PP0427] ([NMeL]I[NEtG][Sar][NPrPhe(4-CF3)][Sar][hPhe(3-Cl-4-CF3)][Hyp](Et)[Ac5c][NMeGly(cPent)][NMeD]-NMe2; lactam N-11),0.11,B (a compound having 3 or more and less than 10 is denoted as B),C (A compound having a KD ratio of 0.1 or more and less than 3 is denoted as C)
CCCN1C(=O)CN(C)C(=O)CN(CC)C(=O)[C@H]([C@@H](C)CC)NC(=O)[C@H](CC(C)C)N(C)C(=O)C[C@@H](C(=O)N(C)C)N(C)C(=O)[C@H](C2CCCC2)N(C)C(=O)C2(CCC2)NC(=O)[C@@H]2C[C@@H](OCC)CN2C(=O)[C@H](CCc2ccc(C(F)(F)F)c(Cl)c2)NC(=O)CN(C)C(=O)[C@@H]1Cc1ccc(C(F)(F)F)cc1 [PP0428] ([NMeL]I[NEtG][Sar][NPrPhe(4-CF3)][Sar][hPhe(3-Cl-4-CF3)][Hyp](Et)[Ac4c][NMeGly(cPent)][NMeD]-NMe2; lactam N-11),0.063,B (a compound having 3 or more and less than 10 is denoted as B),C (A compound having a KD ratio of 0.1 or more and less than 3 is denoted as C)
CCCN1C(=O)CN(C)C(=O)[C@@H]2CCN2C(=O)[C@H]([C@@H](C)CC)NC(=O)[C@H](CC(C)C)N(C)C(=O)C[C@@H](C(=O)N(C)C)N(C)C(=O)[C@H](C2CCCC2)N(C)C(=O)C2(CCC2)NC(=O)[C@@H]2CCCN2C(=O)[C@H](CCc2ccc(C(F)(F)F)c(Cl)c2)NC(=O)CN(C)C(=O)[C@@H]1Cc1ccc(C(F)(F)F)cc1 [PP0430] ([NMeL]I[Aze][Sar][NPrPhe(4-CF3)][Sar][hPhe(3-Cl-4-CF3)]P[Ac4c][NMeGly(cPent)][NMeD]-NMe2; lactam N-11),0.26,B (a compound having 3 or more and less than 10 is denoted as B),B (a compound having 3 or more and less than 10 is denoted as B)
CCCN1C(=O)CN(C)C(=O)[C@@H]2CCN2C(=O)[C@H]([C@@H](C)CC)NC(=O)[C@H](CC(C)C)N(C)C(=O)C[C@@H](C(=O)N(C)C)N(C)C(=O)[C@H](C2CCCC2)N(C)C(=O)C2(CCCC2)NC(=O)[C@@H]2C[C@@H](OCC)CN2C(=O)[C@H](CCc2ccc(C(F)(F)F)c(Cl)c2)NC(=O)CN(C)C(=O)[C@@H]1Cc1ccc(C(F)(F)F)cc1 [PP0433] ([NMeL]I[Aze][Sar][NPrPhe(4-CF3)][Sar][hPhe(3-Cl-4-CF3)][Hyp](Et)[Ac5c][NMeGly(cPent)][NMeD]-NMe2; lactam N-11),0.15,B (a compound having 3 or more and less than 10 is denoted as B),B (a compound having 3 or more and less than 10 is denoted as B)
CCCN1C(=O)[C@@H]2CCN2C(=O)[C@H](C)N(C)C(=O)[C@H]([C@@H](C)CC)NC(=O)[C@H](CC(C)C)N(C)C(=O)C[C@@H](C(=O)N(C)C)N(C)C(=O)[C@H](C2CCCC2)N(C)C(=O)C2(CCC2)NC(=O)[C@@H]2CCCN2C(=O)[C@H](CCc2ccc(C(F)(F)F)c(Cl)c2)NC(=O)CN(C)C(=O)[C@@H]1Cc1ccc(C(F)(F)F)cc1 [PP0435] ([NMeL]I[NMeA][Aze][NPrPhe(4-CF3)][Sar][hPhe(3-Cl-4-CF3)]P[Ac4c][NMeGly(cPent)][NMeD]-NMe2; lactam N-11),0.047,C (A compound having a KD ratio of 0.1 or more and less than 3 is denoted as C),C (A compound having a KD ratio of 0.1 or more and less than 3 is denoted as C)
"CCCN1C(=O)[C@@H]2CCN2C(=O)[C@H](C)N(C)C(=O)[C@H]([C@@H](C)CC)NC(=O)[C@H](CC(C)C)N(C)C(=O)C[C@@H](C(=O)N(C)C)N(C)C(=O)[C@H](C2CCCC2)N(C)C(=O)C2(CCCC2)NC(=O)[C@@H]2CC(F)(F)CN2C(=O)[C@H](CCc2ccc(C(F)(F)F)c(Cl)c2)NC(=O)CN(C)C(=O)[C@@H]1Cc1ccc(C(F)(F)F)cc1 [PP0436] ([NMeL]I[NMeA][Aze][NPrPhe(4-CF3)][Sar][hPhe(3-Cl-4-CF3)][Pro(4,4-F2)][Ac5c][NMeGly(cPent)][NMeD]-NMe2; lactam N-11)",0.054,C (A compound having a KD ratio of 0.1 or more and less than 3 is denoted as C),C (A compound having a KD ratio of 0.1 or more and less than 3 is denoted as C)
"CCCN1C(=O)[C@@H]2CCN2C(=O)[C@H](C)N(C)C(=O)[C@H]([C@@H](C)CC)NC(=O)[C@H](CC(C)C)N(C)C(=O)C[C@@H](C(=O)N(C)C)N(C)C(=O)[C@H](C2CCCC2)N(C)C(=O)C2(CCC2)NC(=O)[C@@H]2CC(F)(F)CN2C(=O)[C@H](CCc2ccc(C(F)(F)F)c(Cl)c2)NC(=O)CN(C)C(=O)[C@@H]1Cc1ccc(C(F)(F)F)cc1 [PP0437] ([NMeL]I[NMeA][Aze][NPrPhe(4-CF3)][Sar][hPhe(3-Cl-4-CF3)][Pro(4,4-F2)][Ac4c][NMeGly(cPent)][NMeD]-NMe2; lactam N-11)",0.036,C (A compound having a KD ratio of 0.1 or more and less than 3 is denoted as C),B (a compound having 3 or more and less than 10 is denoted as B)
CCCN1C(=O)[C@@H]2CCN2C(=O)[C@H](C)N(C)C(=O)[C@H]([C@@H](C)CC)NC(=O)[C@H](CC(C)C)N(C)C(=O)C[C@@H](C(=O)N(C)C)N(C)C(=O)[C@H](C2CCCC2)N(C)C(=O)C2(CCCC2)NC(=O)[C@@H]2C[C@@H](OCC)CN2C(=O)[C@H](CCc2ccc(C(F)(F)F)c(Cl)c2)NC(=O)CN(C)C(=O)[C@@H]1Cc1ccc(C(F)(F)F)cc1 [PP0438] ([NMeL]I[NMeA][Aze][NPrPhe(4-CF3)][Sar][hPhe(3-Cl-4-CF3)][Hyp](Et)[Ac5c][NMeGly(cPent)][NMeD]-NMe2; lactam N-11),0.03,C (A compound having a KD ratio of 0.1 or more and less than 3 is denoted as C),C (A compound having a KD ratio of 0.1 or more and less than 3 is denoted as C)
